In patent US8252807B2, “Methods of inhibiting the interaction between S100 and the receptor for advanced glycation end-products” (Board of Regents, The University of Texas System, priority 2007, dated 2012):

Key:
BxPC-3 cells = test: Matrigel invasion assay, BxPC-3; assay type: cell-based; conditions: 24 hours; for BxPC-3 cells invaded, mean: 0 μM mean=19.3%
Method: FIGS. 2A-2D show the effect of cromolyn on pancreatic cancer cell invasion. Panc-1 and BxPC-3 cells were plated in Bio-coat matrigel and control chambers and cultured in serum-free culture media. After 24 hours non-invaded cells in the upper chamber were removed, and cells that invaded onto the lower surface of the membrane were counted from five adjacent fields. […] Data are expressed as the percent invasion through the matrigel matrix and membrane relative to migration through the control membrane. Means and 95% confidence intervals from three independent experiments performed in triplicate are shown. Two-tailed two-sample (unpaired) Student's t-tests were used to determine P values. Panc-1 and BxPC-3 cells were seeded in BIOCOAT matrigel invasion chambers and in control chambers without matrigel (Becton-Dickinson, Bedford, Mass.) according to the manufacturer's protocol. Panc-1 cells were seeded with S100P (100 nM) with or without cromolyn (100 μM), and BxPC-3 cells were seeded with or without cromolyn (1-100 μM). Briefly, 2.0×10^5 cells in 300 μL top solution (serum-free media) were added to each chamber and allowed to invade matrigel for 24 hours at 37° C. in a 5% CO2 atmosphere. The non-invading cells on the upper surface of membrane were removed from the chambers with a cotton swab, and the invading cells on the lower surface of the membrane were fixed and stained using a Diff-Quick stain kit (Becton Dickinson, Bedford, Mass.). After two washes with water, the chambers were allowed to air dry. The numbers of invading cells in five adjacent microscope fields per membrane were counted at 20× magnification to obtain the average number of cells per field. Data are expressed as the percent invasion through the matrigel matrix and membrane relative to the migration through the control membrane. The assays were performed three times.

[1] = system: NFκB promoter activity in Panc-1 cells; test: Luciferase assay for NFκB activity, Panc-1; assay type: cell-based
Method: FIGS. 3A, 3B, and 3C show the effect of cromolyn on S100P stimulated NFκB promoter activity in pancreatic cancer cells in vitro and in vivo. Panc-1 and BxPC-3 pancreatic cancer cell lines stably expressing an NFκB luciferase reporter were examined for the effects of S100P and cromolyn. […] Means and 95% confidence intervals are shown for three independent experiments performed in triplicate. *, P=0.022, †, P<0.001, and ‡, P<0.001 versus control; #, P=0.005 versus 100 nM S100P alone. […] Means and 95% confidence intervals are shown for three independent experiments performed in triplicate. *, P=0.003, †, P<0.001 versus control. […] After 1 week, tumor growth was assessed and NFκB activity was analyzed using an IVIS system (Xenogen Corp., Alameda, Calif.) after injecting mice with D-luciferin (150 mg per kg body weight) (0 time point). The mice were treated with cromolyn (5 mg per kg body weight by intraperitoneal injection), and NFκB luciferase activity was analyzed again at 24 and 48 hours. *, P=0.005 versus control. Means and 95% confidence intervals are shown for two independent experiments (n=4 mice per group). Two-tailed two-sample (unpaired for in vitro and paired for in vivo studies) Student's t-tests were used to determine P values.
To study pancreatic cancer cell NFκB activity, a lentivirus NFκB luciferase reporter gene construct was developed. The NFκB luciferase reporter gene was excised and isolated from the pNF-κB-Luc Vector (Clonetec, Mountain View, Calif.) and cloned into the lentiviral vector FG9 (Gift from Dr. Xiao-Feng Qin, Dept. of Immunology, M.D. Anderson Cancer Center replacing the CMV/LTR and UBiC promoters, to form Lenti-NFκB-Luc. Lentiviral NFκB vector were co-transfected with packaging constructs pRSVREV, pMDLg/pRRE, and the VSV-G expression plasmid pHCMVG, and lentivirus was produced in 293T cells by the calcium transfection method, as previously described in Qin, et al., Inhibiting HIV-1 infection in human T cells by lentiviral-mediated delivery of small interfering RNA against CCR5; Proc. Natl. Acad. Sci. U.S.A. 2003 Jan. 7; 100(1):183-8. […] Functional validation of NFκB reporter activity was conducted in vitro using TNF-α (20 ng/mL, Sigma, St. Louis, Mo.) as a positive control.
BxPC-3 and Panc-1 cells stably expressing a Lenti-NFkB-luc reporter construct were treated with S100P, cromolyn, or the combination for 5 hours. D-luciferin (150 μg/mL) was added to the cells, and luciferase activity was measured using an IVIS bioluminescence system (Xenogen Co. Alameda, Calif.). Each experiment was conducted three times in triplicate.

PC3 prostate cells = test: PC3 prostate cell proliferation; assay type: cell-based; conditions: 24, 48 and 72 hours
Method: PC3 prostate cells were cultured for up to three days in the presence of different concentrations of cromolyn, and cell proliferation was analyzed at 24, 48, and 72 hours. *, P<0.05.

SW480 cells = test: SW480 colon cancer cell invasion (matrigel transwell); assay type: cell-based; conditions: cromolyn 10 μM and 100 μM, 24 hours
Method: SW480 cells were plated on top of a layer of matrigel in a Boyden type chamber (transwell). Media containing 5% FBS was placed in the lower well and the cells were allowed to invade the matrigel layer for 24 hours in the presence of different concentrations of cromolyn.

[2] = system: S100s A1, B, A12, and A13; conditions: previously found; cited from earlier work

O=C(O)c1cc(=O)c2c(OCC(O)COc3cccc4oc(C(=O)O)cc(=O)c34)cccc2o1 [cromolyn, disodium 1,3-bis[(2′-carboxylatochromon-5′-yl)oxy]-2-hydroxypropane]
BxPC-3 cells invaded, difference versus 0 μM (BxPC-3 cells; cromolyn 10 μM): 10.0%
BxPC-3 cells invaded, mean (BxPC-3 cells; cromolyn 10 μM): 9.3%
BxPC-3 cells invaded, difference versus 0 μM (BxPC-3 cells; cromolyn 100 μM): 11.7%
BxPC-3 cells invaded, mean (BxPC-3 cells; cromolyn 100 μM): 7.7%
NFκB promoter activity in Panc-1 cells, mean ([1]; S100P 100 nM + cromolyn 100 μM, 5 hours, S100P alone mean=14460): 7360 photons/sec
NFκB promoter activity in Panc-1 cells, difference S100P alone versus combination with cromolyn ([1]; S100P 100 nM, cromolyn 100 μM): 7100 photons/sec
basal NFκB activity in Panc-1 cells ([1]; cromolyn 100 μM, no S100P, 5 hours): no effect
growth of PC3 cells (PC3 prostate cells): reduced growth
invasiveness of SW480 cells (SW480 cells): reduced the invasiveness
binding to S100 proteins [2]: bind
